In PubChem BioAssay AID1963837 (Molecular Pharmacology Branch, DTP, NCI, 2024):

Tested on: 843126-344-R-J1-PDC complex spheroid viability
Assay: Anticancer human tumor 843126-344-R-J1-PDC patient-derived melanoma cell line growth inhibition [POLQ]
Conditions: for IC50: curve of first compound; for viability, T/C: stronger effect = lower value; active = viability on the fitted dose curve at most 10% of control; inactive = the rest
Outline: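 Patient-derived tumour cells were co-cultured with HUVEC and mesenchymal stem cells as multicellular spheroids at 37 °C. They were treated with POLQ inhibitors (novobiocin, ART-558, RP6685) alone or combined with other agents. Top concentrations were at or near clinical Cmax (otherwise 10 microM; SN-38 at 1 microM), decreasing in half-log steps.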

[1] = second compound 0.0316 µM, first compound 0.0316 µM
[2] = second compound 0.0316 µM, first compound 0.1 µM
[3] = second compound 0.0316 µM, first compound 0.316 µM
[4] = second compound 0.0316 µM, first compound 1 µM
[5] = second compound 0.1 µM, first compound 0.0316 µM
[6] = second compound 0.1 µM, first compound 0.1 µM
[7] = second compound 0.1 µM, first compound 0.316 µM
[8] = second compound 0.1 µM, first compound 1 µM
[9] = second compound 0.316 µM, first compound 0.0316 µM
[10] = second compound 0.316 µM, first compound 0.1 µM
[11] = second compound 0.316 µM, first compound 0.316 µM
[12] = second compound 0.316 µM, first compound 1 µM
[13] = second compound 1 µM, first compound 0.0316 µM
[14] = second compound 1 µM, first compound 0.1 µM
[15] = second compound 1 µM, first compound 0.316 µM
[16] = second compound 1 µM, first compound 1 µM
[17] = second compound 3.16 µM, first compound 0.0316 µM
[18] = second compound 3.16 µM, first compound 0.1 µM
[19] = second compound 3.16 µM, first compound 0.316 µM
[20] = second compound 3.16 µM, first compound 1 µM
[21] = second compound 10 µM, first compound 0.0316 µM
[22] = second compound 10 µM, first compound 0.1 µM
[23] = second compound 10 µM, first compound 0.316 µM
[24] = second compound 10 µM, first compound 1 µM
[25] = second compound 0.0316 µM, first compound 0.00316 µM
[26] = second compound 0.0316 µM, first compound 0.01 µM
[27] = second compound 0.1 µM, first compound 0.00316 µM
[28] = second compound 0.1 µM, first compound 0.01 µM
[29] = second compound 0.316 µM, first compound 0.00316 µM
[30] = second compound 0.316 µM, first compound 0.01 µM
[31] = second compound 1 µM, first compound 0.00316 µM
[32] = second compound 1 µM, first compound 0.01 µM
[33] = second compound 3.16 µM, first compound 0.00316 µM
[34] = second compound 3.16 µM, first compound 0.01 µM
[35] = second compound 10 µM, first compound 0.00316 µM
[36] = second compound 10 µM, first compound 0.01 µM
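Throughout, for viability, T/C: spheroids exposed to drugs for seven days before readout.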

COc1cccc2c1C(=O)c1c(O)c3c(c(O)c1C2=O)CC(O)(C(=O)CO)CC3OC1CC(N)C(O)C(C)O1 (stereo unspecified) + Nc1ccc(C#CCN(C(=O)Cc2ncc(C(F)(F)F)cc2C(F)(F)F)c2ccc(F)cc2)nn1
348 nM: IC50 (second compound 1 µM)
active: viability, T/C (second compound 0.0316 µM, first compound 3.16 µM) 3.95% | viability, T/C (second compound 0.0316 µM, first compound 10 µM) 2.82% | viability, T/C (second compound 0.1 µM, first compound 3.16 µM) 3.48% | viability, T/C (second compound 0.1 µM, first compound 10 µM) 2.63% | viability, T/C [12] 12.2% | viability, T/C (second compound 0.316 µM, first compound 3.16 µM) 2.99% | viability, T/C (second compound 0.316 µM, first compound 10 µM) 2.71% | viability, T/C (second compound 1 µM, first compound 3.16 µM) 3.21% | viability, T/C (second compound 1 µM, first compound 10 µM) 2.34% | viability, T/C (second compound 3.16 µM, first compound 3.16 µM) 3.21% | viability, T/C (second compound 3.16 µM, first compound 10 µM) 2.76% | viability, T/C (second compound 10 µM, first compound 3.16 µM) 2.78% | viability, T/C (second compound 10 µM, first compound 10 µM) 2.29%
293 nM: IC50 (second compound 0.316 µM)
412 nM: IC50 (second compound 0.1 µM)
inactive: viability, T/C [1] 84.7% | viability, T/C [2] 84.8% | viability, T/C [3] 57.3% | viability, T/C [4] 16.1% | viability, T/C [5] 94.7% | viability, T/C [6] 84.4% | viability, T/C [7] 61.3% | viability, T/C [8] 15.7% | viability, T/C [9] 77.9% | viability, T/C [10] 94.6% | viability, T/C [11] 47.5% | viability, T/C [13] 78.5% | viability, T/C [14] 79% | viability, T/C [15] 52.6% | viability, T/C [16] 14.2% | viability, T/C [17] 82.4% | viability, T/C [18] 76.3% | viability, T/C [19] 47.8% | viability, T/C [20] 13.9% | viability, T/C [21] 80.6% | viability, T/C [22] 73.4% | viability, T/C [23] 48.5% | viability, T/C [24] 10.4%
290 nM: IC50 (second compound 3.16 µM)
288 nM: IC50 (second compound 10 µM)
393 nM: IC50 (second compound 0.0316 µM)

Cn1ncnc1[C@H]1c2n[nH]c(=O)c3cc(F)cc(c23)N[C@@H]1c1ccc(F)cc1 + Nc1ccc(C#CCN(C(=O)Cc2ncc(C(F)(F)F)cc2C(F)(F)F)c2ccc(F)cc2)nn1
> 100 nM: IC50 (second compound 0.0316 µM) | IC50 (second compound 0.1 µM) | IC50 (second compound 0.316 µM) | IC50 (second compound 1 µM) | IC50 (second compound 3.16 µM) | IC50 (second compound 10 µM)
inactive: viability, T/C (second compound 0.0316 µM, first compound 0.000316 µM) 87.1% | viability, T/C (second compound 0.0316 µM, first compound 0.001 µM) 93.9% | viability, T/C [25] 101% | viability, T/C [26] 93.4% | viability, T/C [1] 96.1% | viability, T/C [2] 82.6% | viability, T/C (second compound 0.1 µM, first compound 0.000316 µM) 89% | viability, T/C (second compound 0.1 µM, first compound 0.001 µM) 91.7% | viability, T/C [27] 107% | viability, T/C [28] 96.2% | viability, T/C [5] 99.7% | viability, T/C [6] 97.7% | viability, T/C (second compound 0.316 µM, first compound 0.000316 µM) 108% | viability, T/C (second compound 0.316 µM, first compound 0.001 µM) 93.3% | viability, T/C [29] 111% | viability, T/C [30] 93.2% | viability, T/C [9] 99.8% | viability, T/C [10] 99.8% | viability, T/C (second compound 1 µM, first compound 0.000316 µM) 97.3% | viability, T/C (second compound 1 µM, first compound 0.001 µM) 102% | viability, T/C [31] 87.9% | viability, T/C [32] 106% | viability, T/C [13] 104% | viability, T/C [14] 73.1% | viability, T/C (second compound 3.16 µM, first compound 0.000316 µM) 93.3% | viability, T/C (second compound 3.16 µM, first compound 0.001 µM) 102% | viability, T/C [33] 88% | viability, T/C [34] 95.7% | viability, T/C [17] 102% | viability, T/C [18] 94.8% | viability, T/C (second compound 10 µM, first compound 0.000316 µM) 101% | viability, T/C (second compound 10 µM, first compound 0.001 µM) 83.6% | viability, T/C [35] 97% | viability, T/C [36] 89.5% | viability, T/C [21] 88.6% | viability, T/C [22] 80.2%

COc1cccc(OCCCN)c1-c1cc(Nc2cnc(C#N)cn2)n[nH]1 + Cc1cccc(N(C)C(=O)C2C(O)CCN2c2nc(C)cc(C(F)(F)F)c2C#N)c1
125 nM: IC50 (second compound 1 µM)
82.4 nM: IC50 (second compound 0.1 µM)
81.2 nM: IC50 (second compound 10 µM)
79.9 nM: IC50 (second compound 3.16 µM)
157 nM: IC50 (second compound 0.316 µM)
inactive: viability, T/C [25] 96.8% | viability, T/C [26] 75.1% | viability, T/C [1] 63.5% | viability, T/C [2] 48.8% | viability, T/C [3] 40.5% | viability, T/C [4] 34.3% | viability, T/C [27] 102% | viability, T/C [28] 71.6% | viability, T/C [5] 61.1% | viability, T/C [6] 48% | viability, T/C [7] 42.6% | viability, T/C [8] 38.2% | viability, T/C [29] 90% | viability, T/C [30] 75.9% | viability, T/C [9] 59.8% | viability, T/C [10] 59% | viability, T/C [11] 43.3% | viability, T/C [12] 34.4% | viability, T/C [31] 92.9% | viability, T/C [32] 72.1% | viability, T/C [13] 62.4% | viability, T/C [14] 54.7% | viability, T/C [15] 42.3% | viability, T/C [16] 32.7% | viability, T/C [33] 98.3% | viability, T/C [34] 77.3% | viability, T/C [17] 58.3% | viability, T/C [18] 47.5% | viability, T/C [19] 41.7% | viability, T/C [20] 33.8% | viability, T/C [35] 108% | viability, T/C [36] 67.4% | viability, T/C [21] 64.3% | viability, T/C [22] 48.9% | viability, T/C [23] 42.5% | viability, T/C [24] 40.4%
96.1 nM: IC50 (second compound 0.0316 µM)
